Measured values as given in ChEMBL document CHEMBL5346960, “Quantitative Attribution of the Protective Effects of Aminosterols against Protein Aggregates to Their Chemical Structures and Ability to Modulate Biological Membranes” (2023).
Calls of active or inactive are those of the source. The calls are words filed in the database; no cut-off is given here.

What was measured:
Lipid bilayer [1] = experiment: Binding affinity to large unilamellar vesicles liposome model assessed as saturation concentration by measuring increase in LUV mass incubated for 15 mins by light scattering analysis; details: filed as modulator
Lipid bilayer [2] = experiment: Binding affinity to large unilamellar vesicles liposome model assessed as saturation concentration by measuring increase in incorporated compound mass incubated for 15 mins by light scattering analysis; details: filed as modulator
Lipid bilayer [3] = experiment: Binding affinity to large unilamellar vesicles liposome model assessed as increase in LUV diameter incubated for 15 mins by light scattering analysis
Lipid bilayer [4] = experiment: Binding affinity to large unilamellar vesicles liposome model assessed as increase in LUV size incubated for 15 mins by light scattering analysis; details: filed as modulator
Lipid bilayer [5] = experiment: Binding affinity to large unilamellar vesicles liposome model assessed as increase in transition temperature […] (reference value: 24.5 +/- 2 degreeC); details: filed as modulator
Lipid bilayer [6] = experiment: Induction of membrane redistribution in large unilamellar vesicles liposome model assessed as mean shortest distance between BODIPY-FL C5-GM1 and BODIPY-542/563 C11-CHOL at 5 uM by FRET assay relative to control; details: filed as modulator
Lipid bilayer [7] = experiment: Induction of membrane redistribution in large unilamellar vesicles liposome model assessed as mean shortest distance between BODIPY-FL-CHOL and BODIPY-542/563 C11-CHOL at 5 uM by FRET assay relative to control; details: filed as modulator
Lipid bilayer [8] = experiment: Displacement of alpha-synuclein from DMPS large unilamellar vesicles liposome model incubated for 15 mins by Far-UV CD spectroscopy; details: filed as modulator, dose <= 70.0 µM
SH-SY5Y [9] = experiment: Protection against human SH-SY5Y cells assessed as decrease in ADDL-induced cytosolic calcium level incubated for 15 mins by Fluo-4 AM dye based scanning confocal microscopic analysis; format: functional, cell-based; details: dose 0.05-5 µM
SH-SY5Y [10] = experiment: Protection against human SH-SY5Y cells assessed as decrease in ADDL-induced cytosolic calcium level at 5 uM incubated for 15 mins by Fluo-4 AM dye based scanning confocal microscopic analysis; format: functional; design: scale not given: the % may be the effect or the level left; details: 0.25 h
Lipid bilayer [11] = experiment: Induction of membrane redistribution in large unilamellar vesicles liposome model assessed as mean shortest distance between BODIPY-FL C5-GM1 and BODIPY-542/563 C11-CHOL at 5 uM by FRET assay (reference value: 65 +/- 1 Angstrom); details: filed as modulator
Lipid bilayer [12] = experiment: Induction of membrane redistribution in large unilamellar vesicles liposome model assessed as mean shortest distance between BODIPY-FL-CHOL and BODIPY-542/563 C11-CHOL at 5 uM by FRET assay (reference value: 72 +/- 1 Angstrom); details: filed as modulator
Lipid bilayer [13] = experiment: Induction of membrane redistribution in large unilamellar vesicles liposome model assessed as mean shortest distance between BODIPY-FL-SM and BODIPY-542/563 C11-CHOL at 5 uM by FRET assay (reference value: 69 +/- 1 Angstrom); details: filed as modulator
Lipid bilayer [14] = experiment: Induction of membrane redistribution in large unilamellar vesicles liposome model assessed as mean shortest distance between BODIPY-FL-DOPC and BODIPY-542/563 C11-CHOL at 5 uM by FRET assay (reference value: 70 +/- 2 Angstrom); details: filed as modulator
Lipid bilayer [15] = experiment: Binding affinity to large unilamellar vesicles liposome model assessed as saturation concentration by microfluidic analysis; details: filed as modulator

| Activity (Lipid bilayer [1]) [µM] | Activity (Lipid bilayer [2]) [µM] | Activity (Lipid bilayer [3]) | Activity (Lipid bilayer [4]) | T (Lipid bilayer [5]) [°C] | Activity (Lipid bilayer [6]) [%] | Activity (Lipid bilayer [7]) [%] | Activity (Lipid bilayer [8]) | Activity (Lipid bilayer [11]) [Angstrom] | Activity (Lipid bilayer [12]) [Angstrom] | Activity (Lipid bilayer [13]) [Angstrom] | Activity (Lipid bilayer [14]) [Angstrom] | Activity (Lipid bilayer [15]) [µM] | SMILES | Activity (SH-SY5Y [9]) | Activity (SH-SY5Y [10]) [%] |
| --- | --- | --- | --- | --- | --- | --- | --- | --- | --- | --- | --- | --- | --- | --- | --- |
| 43 | 43 | inactive | Active | 46 | 57 | 64 | Dose-Dependent Effect | 73 | 63 | 69 | 67 | – | C[C@H](CCC[C@H](C)C(=O)O)[C@H]1CC[C@H]2[C@@H]3[C@H](O)C[C@H]4C[C@@H](NCCCNCCCCNCCCN)CC[C@]4(C)[C@H]3CC[C@]12C | Dose-Dependent Effect | 100 |
| 35 | 35 | inactive | Active | 46 | 100 | 100 | Dose-Dependent Effect | 79 | 58 | 67 | 68 | 28 | CC(C)[C@@H](CC[C@@H](C)[C@H]1CC[C@H]2[C@@H]3[C@H](O)C[C@H]4C[C@@H](NCCCNCCCCNCCCN)CC[C@]4(C)[C@H]3CC[C@]12C)OS(=O)(=O)O [TRODUSQUEMINE] | Dose-Dependent Effect | 100 |
| 12 | 15 | inactive | Active | 35 | 50 | 57 | Dose-Dependent Effect | 72 | 64 | 72 | 68 | – | CC(C)[C@@H](CC[C@@H](C)[C@H]1CC[C@H]2[C@@H]3[C@H](O)C[C@H]4C[C@@H](NCCCNCCCCN)CC[C@]4(C)[C@H]3CC[C@]12C)OS(=O)(=O)O [SQUALAMINE] | Dose-Dependent Effect | 100 |
